# Source: patent EP2931723B1, “NEW BICYCLIC COMPOUNDS AND THEIR USE AS ANTIBACTERIAL AGENTS AND -LACTAMASE INHIBITORS” (Fedora Pharmaceuticals Inc., priority 2012, dated 2014)
# Key:
# Test in all cases: MIC, antibacterial and synergistic activity
# Type in all cases: cell-based
# [1] = system: E. coli ATCC 25922; details: E. coli ATCC 25922 (Wt)
# [2] = system: E.coli JMI 4103; details: E.coli JMI 4103 (KPC-2, Tem-1, CMY-Type)
# [3] = system: E. coli JMI 4080
# [4] = system: E. coli JMI 10767; details: E. coli JMI 10767 (Wt)
# Procedure: (§1) In the Tables 10 - 12, compounds herein disclosed were tested in combination with various antibiotics against metallo β-lactamase producing bacteria. Table 3: Synergy of the inhibitor Ex. 1 (4 µg/mL) in combination with antibiotics
# [5] = system: E. coli JMI 10768; details: E. coli JMI 10768 (CTX-M15 (Weak ESBL))
# Procedure: as §1
# [6] = system: E. coli JMI 10770; details: E. coli JMI 10770 (CTX-M15 (Hyper ESBL))
# Procedure: as §1
# [7] = system: E. coli JMI 2665
# Procedure: as §1
# [8] = system: E. coli JMI 2671
# Procedure, shortened: (§2)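 MBL strains; antibiotic + inhibitor 4 µg/mL; MIC.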
# [9] = system: K. pneumo JMI 2699; details: K. pneumo JMI 2699 (VIM-1, CTX-M3)
# Procedure, shortened: as §2
# [10] = system: K.pneumo JMI 4109; details: K.pneumo JMI 4109 (SHV-1, SHV-12)
# Procedure, shortened: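 Antibacterial synergy was assessed by pairing each inhibitor compound, at a constant concentration of 4 µg/mL, with β-lactam antibiotics. The combinations were run against bacterial strains that produce β-lactamases, and the readout was the minimum inhibitory concentration of the antibiotic in the presence of the inhibitor.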
# [11] = system: K. pneumo JMI 4106; details: K. pneumo JMI 4106 (KPC-3, TEM-1, SHV-12, SHV-141)
# [12] = system: E. coli JMI 2692; details: E. coli JMI 2692 (NDM-1, TEM-1, CTX-M-15)
# Procedure: (§3) In the Tables 10 - 12, compounds herein disclosed were tested in combination with various antibiotics against metallo β-lactamase producing bacteria.
# [13] = system: K. pneumo JMI 2693; details: K. pneumo JMI 2693 (NDM-1 (Cpase))
# Procedure: as §3
# [14] = system: K. pneumo JMI 2697; details: K. pneumo JMI 2697 (IMP-4 (Cpase))
# Procedure: as §3
# [15] = system: K. pneumo JMI 2681; details: K. pneumo JMI 2681 (Oxa-48 (Cpase))
# [16] = system: P. aerug JMI 149; details: P. aerug JMI 149 (Bla+++D+)
# [17] = system: K. pneumo JMI 2674; details: K. pneumo JMI 2674 (CTX-M15 (ESBL)); substance alone
# [18] = system: K. pneumo JMI 4088; details: K. pneumo JMI 4088 (KPC-3 (Cpase)); substance alone
# [19] = system: P. aerug JMI 2686; details: P. aerug JMI 2686 (KPC-2 (Cpase)); substance alone
# [20] = system: E. coli JMI 10767; details: E. coli JMI 10767 (Wt); remark: listed apart in the source
# [21] = system: E. coli JMI 10768; details: E. coli JMI 10768 (CTX-M15 (Weak ESBL)); Meropenem + inhibitor at 4 µg/mL
# [22] = system: E. coli JMI 11103
# [23] = Aztreonam + inhibitor at 4 µg/mL
# [24] = Ceftazidime + inhibitor at 4 µg/mL
# [25] = Meropenem + inhibitor at 4 µg/mL
structure (smiles),measurement,setting,value
"NCCONC(=O)[C@@H]1CC[C@@H]2CN1C(=O)N2OS(=O)(=O)O [Ex. 3, (2S,5R)-N-(2-Aminoethoxy)-7-oxo-6-(sulfooxy)-1,6-diazabicyclo[3.2.1]octane-2-carboxamide]",MIC Aztreonam + inhibitor,[1]; [23],≤0.062 µg/mL
same,MIC Ceftazidime + inhibitor,[1]; [24],≤0.25 µg/mL
same,MIC Meropenem + inhibitor,[1]; [25],≤0.0312 µg/mL
same,MIC,"[1]; Escherichia coli, ATCC25922, substance alone",2 µg/mL
same,MIC Aztreonam + inhibitor,[2]; [23],≤0.062 µg/mL
same,MIC Ceftazidime + inhibitor,[2]; [24],≤0.25 µg/mL
same,MIC Meropenem + inhibitor,[2]; [25],≤0.0312 µg/mL
same,MIC,"[2]; Escherichia coli, JMI4103, substance alone",4 µg/mL
same,MIC Aztreonam + inhibitor,"[3]; E. coli JMI 4080 (Tem-10), Aztreonam + inhibitor at 4 µg/mL",≤0.062 µg/mL
same,MIC Ceftazidime + inhibitor,"[3]; E. coli JMI 4080 (Tem-10), Ceftazidime + inhibitor at 4 µg/mL",≤0.25 µg/mL
same,MIC Meropenem + inhibitor,"[3]; E. coli JMI 4080 (Tem-10), Meropenem + inhibitor at 4 µg/mL",≤0.0312 µg/mL
same,MIC,"[3]; Escherichia coli, JMI4080, E. coli JMI 4080 (Tem-10), substance alone",2 µg/mL
same,MIC Aztreonam + inhibitor,[4]; [23],≤0.062 µg/mL
same,MIC Ceftazidime + inhibitor,[4]; [24],≤0.25 µg/mL
same,MIC Aztreonam + inhibitor,[5]; [23],≤0.062 µg/mL
same,MIC Ceftazidime + inhibitor,[5]; [24],≤0.25 µg/mL
same,MIC,"[5]; Escherichia coli, JMI10768, substance alone",4 µg/mL
same,MIC Aztreonam + inhibitor,[6]; [23],8 µg/mL
same,MIC Ceftazidime + inhibitor,[6]; [24],2 µg/mL
same,MIC Meropenem + inhibitor,[6]; [25],0.062 µg/mL
same,MIC Aztreonam + inhibitor,"[7]; E. coli JMI 2665 (CMY-2 (Plasmid Cpase)), Aztreonam + inhibitor at 4 µg/mL",≤0.062 µg/mL
same,MIC Ceftazidime + inhibitor,"[7]; E. coli JMI 2665 (CMY-2 (Plasmid Cpase)), Ceftazidime + inhibitor at 4 µg/mL",≤0.25 µg/mL
same,MIC,"[7]; Escherichia coli, JMI2665",2 µg/mL
same,MIC Aztreonam + inhibitor,"[8]; E. coli JMI 2671 (VIM-19 (Cpase)), Aztreonam + inhibitor at 4 µg/mL",≤0.062 µg/mL
same,MIC Ceftazidime + inhibitor,"[8]; E. coli JMI 2671 (VIM-19 (Cpase)), Ceftazidime + inhibitor at 4 µg/mL",≤0.25 µg/mL
same,MIC Meropenem + inhibitor,"[8]; E. coli JMI 2671 (VIM-19 (Cpase)), Meropenem + inhibitor at 4 µg/mL",≤0.0312 µg/mL
same,MIC,"[8]; Escherichia coli, JMI2671, E. coli JMI 2671 (VIM-19 (Cpase)), substance alone",2 µg/mL
same,MIC Aztreonam + inhibitor,[9]; [23],≤0.062 µg/mL
same,MIC Ceftazidime + inhibitor,[9]; [24],≤0.25 µg/mL
same,MIC Meropenem + inhibitor,[9]; [25],≤0.0312 µg/mL
same,MIC,"[9]; substance alone, read-out: MIC",4 µg/mL
same,MIC Aztreonam + inhibitor,[10]; [23],≤0.062 µg/mL
same,MIC Ceftazidime + inhibitor,[10]; [24],≤0.25 µg/mL
same,MIC Meropenem + inhibitor,[10]; [25],≤0.0312 µg/mL
same,MIC Aztreonam + inhibitor,[11]; [23],≤0.062 µg/mL
same,MIC Ceftazidime + inhibitor,[11]; [24],≤0.25 µg/mL
same,MIC Meropenem + inhibitor,[11]; [25],≤0.0312 µg/mL
same,MIC,"[11]; substance alone, read-out: MIC",2 µg/mL
same,MIC Aztreonam + inhibitor,[12]; [23],≤0.062 µg/mL
same,MIC Ceftazidime + inhibitor,[12]; [24],≤0.25 µg/mL
same,MIC Meropenem + inhibitor,[12]; [25],≤0.0312 µg/mL
same,MIC,"[12]; Escherichia coli, JMI2692, substance alone, read-out: MIC",2 µg/mL
same,MIC Aztreonam + inhibitor,[13]; [23],0.25 µg/mL
same,MIC Ceftazidime + inhibitor,[13]; [24],≤0.25 µg/mL
same,MIC Meropenem + inhibitor,[13]; [25],≤0.0312 µg/mL
same,MIC,[13]; substance alone,8 µg/mL
same,MIC Aztreonam + inhibitor,[14]; [23],0.25 µg/mL
same,MIC Ceftazidime + inhibitor,[14]; [24],0.5 µg/mL
same,MIC Meropenem + inhibitor,[14]; [25],0.25 µg/mL
same,MIC,[14]; substance alone,8 µg/mL
same,MIC Aztreonam + inhibitor,[15]; [23],1 µg/mL
same,MIC Ceftazidime + inhibitor,[15]; [24],≤0.25 µg/mL
same,MIC Meropenem + inhibitor,[15]; [25],0.5 µg/mL
same,MIC,"[15]; substance alone, read-out: MIC",> 16 µg/mL
same,MIC Aztreonam + inhibitor,[16]; [23],>4 µg/mL
same,MIC Ceftazidime + inhibitor,[16]; [24],4 µg/mL
same,MIC Meropenem + inhibitor,[16]; [25],0.25 µg/mL
same,MIC,"[16]; substance alone, read-out: MIC",> 16 µg/mL
same,MIC,[17],> 16 µg/mL
same,MIC,[18],2 µg/mL
same,MIC,[19],> 16 µg/mL
same,MIC Meropenem + inhibitor,[20]; [25],≤0.0312 µg/mL
same,MIC,"[20]; Escherichia coli, JMI10767, substance alone",2 µg/mL
same,MIC Meropenem + inhibitor,[21],0.062 µg/mL
same,MIC Aztreonam + inhibitor,"[22]; E. coli JMI 11103 (CTX-M15 (Intermediate ESBL)), Aztreonam + inhibitor at 4 µg/mL",0.5 µg/mL
same,MIC Ceftazidime + inhibitor,"[22]; E. coli JMI 11103 (CTX-M15 (Intermediate ESBL)), Ceftazidime + inhibitor at 4 µg/mL",0.5 µg/mL
same,MIC Meropenem + inhibitor,"[22]; E. coli JMI 11103 (CTX-M15 (Intermediate ESBL)), Meropenem + inhibitor at 4 µg/mL",0.062 µg/mL
same,MIC,"[22]; Escherichia coli, JMI11103, E. coli JMI 11103 (CTX-M15 (Intermediate ESBL)), substance alone",4 µg/mL
